{"source": "patent US6951950B2", "about": "“Quaternary ammonium compounds” (Pharmacia & Upjohn Co, priority 2002, dated 2005)", "test_system": "Balb/c mice", "test": "Bronchodilatory effect of inhaled quaternary ammonium salts; methacholine-induced bronchoconstriction (Penh, whole body plethysmography)", "assay_type": "in vivo", "settings": "for inhibition of the bronchoconstriction to methacholine: female BALB/c mice, 5 min inhalation of 1.29 mg/ml aerosol, 80 mg/ml methacholine", "experimental": "Female BALB/c mice, weight range 19-22 g, were obtained from Charles River Laboratories (Kingston, N.C.). They received food and water ad libitum. All procedures in these studies were in compliance with the Animal Welfare Act Regulation, 9CFP. Parts 1 and 2, Publication (NIH) 85-23, 1985.\nCompounds for aerosol administration were prepared in sterile Dulbecco's Phosphate Buffered Saline. Mice were placed in a carousel-style, nose only, exposure chamber and allowed to inhale aerosols for five minutes, using an ICN SPAG-2 nebulizer. This nebulizer generates a mean aerosol particle size of 1.3 microns at a rate of approximately 0.25 ml/minute.\nTen minutes and 36 hours later, the mice were moved to whole body plethysmograph chambers. Bronchoconstriction was induced in mice by administration of an 80 mg/ml methacholine (MC) aerosol into the plethysmograph chambers for 5 minutes. The mice were allowed to inhale an aerosol containing 80 mg/ml methacholine following inhalation treatment with DPBS vehicle (Dulbecco's Phosphate Buffered Saline), or 80 mg/ml methacholine following inhalation treatment with 1.29 mg/ml of (3S)-3-(2-amino-2-oxo-1,1-diphenylethyl)-1-[2-(2,3-dihydro-1-benzofuran-5-yl)ethyl]-1-methylpyrrolidinium iodide. The average enhanced pause (Penh, lung resistance), corresponding to airflow resistance, was determined and statistically analyzed using Kruskal-Wallis one way ANOVA. In order to determine the baseline, saline aerosol (without methacholine) was also separately administered to the mice."}
{"smiles": "C[N+]1(CCc2ccc3c(c2)CCO3)CC[C@@H](C(C(N)=O)(c2ccccc2)c2ccccc2)C1.[I-]", "note": "(stereo partly drawn) [Example I, (3S)-3-(2-amino-2-oxo-1,1-diphenylethyl)-1-[2-(2,3-dihydro-1-benzofuran-5-yl)ethyl]-1-methylpyrrolidinium iodide]", "values": [{"measurement": "inhibition of the bronchoconstriction to methacholine", "setting": "measured 10 minutes after dosing (FIG. 1)", "value": 100, "unit": "%"}, {"measurement": "inhibition of the bronchoconstriction to methacholine", "setting": "measured 36 hours after dosing (FIG. 2)", "value": 61, "unit": "%"}, {"measurement": "efficacy (lung resistance) compared to tertiary amine form", "setting": "varying concentrations, quaternary compound vs its tertiary amine form (FIGS. 3A-3C)", "value": "extended activity"}]}
